The values below come from ChEMBL document CHEMBL3804817, “Development of novel bis-naphthalimide derivatives and their anticancer properties” (Medchemcomm, 2016).

Structures are written as SMILES. The source made the active and inactive calls. The calls are words filed in the database; no cut-off is given here.

The subject of data set [1] is HeLa. Description: Cytotoxicity against human HeLa cells after 48 hrs by MTT assay. The format is functional, cell-based. (In general: Formazan colour is commonly taken as a measure of viable cells.)
The subject of data set [2] is A549. Description: Cytotoxicity against human A549 cells after 48 hrs by MTT assay. Type of data set: functional, cell-based. To be noted: A549, 48 h.
Data set [3] in a line: Cytotoxicity against human SGC7901 cells after 48 hrs by MTT assay. The format is functional, cell-based. The settings on record: SGC-7901, 48 h.
The test system of data set [4] is MCF7. As to the kind of experiment: Cytotoxicity against human MCF7 cells after 48 hrs by MTT assay. The settings on record: MCF7, 48 h. Type of data set: functional, cell-based.
Data set [5] has as its system HeLa. Description: Cell cycle arrest in human HeLa cells assessed as increase in accumulation at S phase by flow cytometry. The format is functional, cell-based. For orientation: In flow cytometry, cells or beads pass a laser one at a time.
Data set [6] deals with HeLa. As to the kind of experiment: Cell cycle arrest in human HeLa cells assessed as decrease in accumulation at G0/G1 phase phase by flow cytometry. Type of data set: functional, cell-based.
Data set [7] relates to Mus musculus. As to the kind of experiment: Toxicity in Balb/c mouse assessed as change in RBC at 5 to 20 mg/kg, iv measured after 24 to 96 hrs. Type of data set: organism-based. The settings on record: in vivo.
The subject of data set [8] is Mus musculus. As to the kind of experiment: Cardiotoxicity in Balb/c mouse assessed as increase in CK level at 5 to 20 mg/kg, iv measured after 24 hrs. Type of data set: toxicity, organism-based. To be noted: in vivo.
Data set [9] deals with Calf thymus DNA. As to the kind of experiment: Induction of DNA intercalation of calf thymus DNA assessed as binding constant by fluorescence spectrophotometry. Type of data set: nucleic-acid assay. The settings on record: Bos taurus.
Data set [10] deals with HeLa. Description: Cell cycle arrest in human HeLa cells assessed as accumulation at G2/M phase at 1 to 10 uM after 48 hrs by flow cytometry. The format is functional.
Data set [11] relates to HeLa. As to the kind of experiment: Cell cycle arrest in human HeLa cells assessed as accumulation at G1/G0 phase at 1 to 10 uM after 48 hrs by flow cytometry. Type of data set: functional.
In data set [12] the test system is Calf thymus DNA. As to the kind of experiment: Induction of DNA intercalation of calf thymus DNA at 1 x 10^-5 M measured at 530 nm by fluorescence spectrophotometry. To be noted: Bos taurus. Type of data set: nucleic-acid assay.
The test system of data set [13] is HeLa. As to the kind of experiment: Binding affinity to DNA in human HeLa cells at 2 uM after 12 hrs by confocal microscopy. The format is cell-based.
Data set [14] deals with Calf thymus DNA. As to the kind of experiment: Induction of DNA intercalation of calf thymus DNA assessed as reduction in intensity of absorption using 0 to 6 x 10^-5 M calf thymus DNA by UV spectrophotometry. To be noted: Bos taurus. Type of data set: nucleic-acid assay.
In data set [15] the test system is HeLa. As to the kind of experiment: Cell cycle arrest in human HeLa cells assessed as accumulation at S phase at 1 to 10 uM after 48 hrs by flow cytometry. Type of data set: functional.
Data set [16] deals with Calf thymus DNA. Description: Induction of DNA intercalation of calf thymus DNA assessed as increase in intensity of negative band at 245 nm at 2 x 10^-5 M by circular dichroism spectroscopy. The format is nucleic-acid assay. The settings on record: Bos taurus. (In general: Circular dichroism is the unequal absorption of left and right circularly polarised light.)
The test system of data set [17] is HeLa. Description: Induction of apoptosis in human HeLa cells assessed as early apoptotic cells at 5 uM by Annexin V-FITC/propidium iodide staining-based flow cytometry (reference value: 0.05%). Type of data set: functional.
Data set [18] deals with Calf thymus DNA. As to the kind of experiment: Induction of DNA intercalation of calf thymus DNA assessed as increase in fluorescence intensity by fluorescence spectrophotometry. The format is nucleic-acid assay. To be noted: Bos taurus.
The test system of data set [19] is Mus musculus. As to the kind of experiment: Cardiotoxicity in Balb/c mouse assessed as increase in LDH level at 5 to 20 mg/kg, iv measured after 24 hrs. The format is toxicity, organism-based. The settings on record: in vivo.
In data set [20] the test system is Calf thymus DNA. Description: Induction of DNA intercalation of calf thymus DNA measured at 320 to 520 nm at 2 x 10^-5 M by circular dichroism spectroscopy. The settings on record: Bos taurus. The format is nucleic-acid assay.
The test system of data set [21] is Calf thymus DNA. As to the kind of experiment: Induction of DNA intercalation of calf thymus DNA assessed as increase in intensity of positive band at 275 nm at 2 x 10^-5 M by circular dichroism spectroscopy. The format is nucleic-acid assay. To be noted: Bos taurus.
Data set [22] has as its system HeLa. As to the kind of experiment: Induction of apoptosis in human HeLa cells assessed as late apoptotic cells at 1 uM by Annexin V-FITC/propidium iodide staining-based flow cytometry (reference value: 0.02%). Type of data set: functional.
Data set [23] deals with HeLa. Description: Induction of apoptosis in human HeLa cells assessed as early apoptotic cells at 1 uM by Annexin V-FITC/propidium iodide staining-based flow cytometry (reference value: 0.05%). Type of data set: functional.
The test system of data set [24] is Calf thymus DNA. As to the kind of experiment: Induction of DNA intercalation of calf thymus DNA assessed as change in melting temperature at 5 x 10^-6 M by thermal denaturation analysis. Type of data set: nucleic-acid assay. The settings on record: Bos taurus.
Data set [25] relates to HeLa. As to the kind of experiment: Induction of apoptosis in human HeLa cells assessed as early apoptotic cells at 10 uM by Annexin V-FITC/propidium iodide staining-based flow cytometry (reference value: 0.05%). Type of data set: functional.
Data set [26] relates to Calf thymus DNA. Description: Induction of DNA intercalation of calf thymus DNA assessed as hypsochromic shift by fluorescence spectrophotometry (reference value: 530 nanometer). To be noted: Bos taurus. The format is nucleic-acid assay.
Data set [27] deals with Mus musculus. Description: Toxicity in Balb/c mouse assessed as decrease in number of WBC at 5 to 20 mg/kg, iv measured after 24 to 96 hrs. Type of data set: organism-based. To be noted: in vivo.
Data set [28] has as its system Mus musculus. Description: Toxicity in Balb/c mouse assessed as increase in number of platelets at 5 to 20 mg/kg, iv measured after 24 to 96 hrs. The format is organism-based. The settings on record: in vivo.
The test system of data set [29] is HeLa. Description: Induction of apoptosis in human HeLa cells assessed as early apoptotic cells at 2.5 uM by Annexin V-FITC/propidium iodide staining-based flow cytometry (reference value: 0.05%). Type of data set: functional.
Data set [30] concerns HeLa. Description: Induction of apoptosis in human HeLa cells assessed as late apoptotic cells at 5 uM by Annexin V-FITC/propidium iodide staining-based flow cytometry (reference value: 0.02%). The format is functional.
Data set [31] relates to HeLa. Description: Induction of lysosome membrane permeabilization in human HeLa cells by […] (reference value: 1.69%). The format is functional.
For data set [32], the system named is HeLa. Description: Induction of apoptosis in human HeLa cells assessed as late apoptotic cells at 2.5 uM by Annexin V-FITC/propidium iodide staining-based flow cytometry (reference value: 0.02%). Type of data set: functional.
Data set [33] has as its system Calf thymus DNA. Description: Induction of DNA intercalation of calf thymus DNA assessed as increase in intensity of absorption using > 6 x 10^-5 M calf thymus DNA by UV spectrophotometry. The format is nucleic-acid assay. To be noted: Bos taurus.
Data set [34] relates to HeLa. As to the kind of experiment: Induction of apoptosis in human HeLa cells assessed as late apoptotic cells at 10 uM by Annexin V-FITC/propidium iodide staining-based flow cytometry (reference value: 0.02%). The format is functional.
The test system of data set [35] is Mus musculus. Description: Cardiotoxicity in Balb/c mouse assessed as increase in AST level at 5 to 20 mg/kg, iv measured after 24 hrs. Type of data set: toxicity, organism-based. To be noted: in vivo.

For `CN(CCCN1C(=O)c2cccc3c(N4CCC[C@@H]4CO)ccc(c23)C1=O)CCCN1C(=O)c2cccc3c(N4CCC[C@@H]4CO)ccc(c23)C1=O`, the IC50 in [1] was over 50 µM; in data set [2] it was 4.71 µM; in [3], 4.46 µM; in data set [4], over 50 µM.
Take `CN(CCCN1C(=O)c2cccc3c(N4CC[C@@H](O)C4)ccc(c23)C1=O)CCCN1C(=O)c2cccc3c(N4CC[C@@H](O)C4)ccc(c23)C1=O`: the IC50 in data set [1] was 3.65 µM; in data set [2], 1.59 µM; in data set [3] it was 23.2 µM; in data set [4] it was 32.9 µM.
Regarding `CN(C)CCN1C(=O)c2cccc3cc(N)cc(c23)C1=O` [AMONAFIDE], the IC50 in [1] is 4.36 µM; in data set [2] it was 1.59 µM; in data set [3], 5.32 µM; in [4] it was 8.02 µM. Further, the Activity entry in data set [5] was “Dose-dependent effect”. In addition, in data set [6], the inhibition entry is “Dose-dependent effect”.
`CN(CCCN1C(=O)c2cccc3c(N4CCC(CCO)CC4)ccc(c23)C1=O)CCCN1C(=O)c2cccc3c(N4CCC(CCO)CC4)ccc(c23)C1=O`: the IC50 in data set [1] was over 50 µM; in data set [2] it was 3.2 µM; in data set [3] it was 3.63 µM; in [4] it was over 50 µM.
Take `CN(CCCN1C(=O)c2cccc3c(N4CCC[C@H]4CO)ccc(c23)C1=O)CCCN1C(=O)c2cccc3c(N4CCC[C@H]4CO)ccc(c23)C1=O`: the IC50 in data set [1] was over 50 µM; in [2], 3.05 µM; in data set [3], 2.3 µM; in data set [4] it was 9.07 µM.
As for `CN(CCCN1C(=O)c2cccc3c(N4CCN(CCO)CC4)ccc(c23)C1=O)CCCN1C(=O)c2cccc3c(N4CCN(CCO)CC4)ccc(c23)C1=O`, the Activity result in data set [7] was “Non-toxic”; in data set [8] it was “Non-toxic”; in [10], 3.1%; in data set [11], 57.79%; in data set [15], 29.79%; in [17] it was 16.41%. For the same compound, the Activity result in data set [19] is “Non-toxic”; in data set [22], 2.09%; in data set [23] it was 11.72%; in data set [25], 41.51%; in data set [26], 520 nm; in data set [27], “Non-toxic”. Besides, the Activity result in data set [28] was “Non-toxic”; in [29], 15.9%; in data set [30], 10.4%; in [31] it was 99.65%; in [32] it was 3.21%; in data set [34] it was 51.22%. Moreover, the Activity result in data set [35] is recorded as “Non-toxic”. Also, the IC50 in data set [1] was 2.31 µM; in data set [2], 1.21 µM; in data set [3], 0.88 µM; in [4] it was 2.94 µM. For the same compound, the K in [9] worked out at 1.2 ×10⁵ /M. Moreover, the result in data set [12], in [13], in data set [14], in data set [16], in data set [18] and in data set [20] was Active. Further, the outcome in data set [21] and in data set [33] was Active. The ΔTm in data set [24] was determined as 8 °C.
Take `CN(CCCN1C(=O)c2cccc3c(N4CC[C@H](O)C4)ccc(c23)C1=O)CCCN1C(=O)c2cccc3c(N4CC[C@H](O)C4)ccc(c23)C1=O`: the IC50 was found to be 1.05 µM in data set [1], 0.6 µM in data set [2], 2.47 µM in data set [3] and 14 µM in data set [4].

For orientation: IC50 means the point on the concentration scale where inhibition reaches its midpoint. The low end stands for higher potency, the high end for lower potency. The term ΔTm denotes the shift of the melting midpoint relative to a reference.
